In publication PMC10287695, “Non-covalent inhibitors of thioredoxin glutathione reductase with schistosomicidal activity in vivo” (Nature Communications, 2023):
“And” between values parts separate entries of the source, which are not always exact repeats. Equal values may be shown once. Read-outs that look alike come from different tables or passages of the source. Marks after values point to notes of the source that are not given here.

Tests used:
Assay type in all cases: cell-based
[1] = system: S. mansoni adult worms; experiment: GSH/GSSG ratio in ex vivo adult worms; conditions: for Decrease (%) in GSH/GSSG ratio: adult worms, 3 h exposure to compounds at 50 μM
Experimental: We assessed GSH/GSSG levels experimentally by treating S. mansoni adult worms with 50 µM of compounds, or respective controls 5 µM Auranofin, 50 µM PZQ or 50 µM MZM and 0.01% DMSO for 3 h. Worm homogenate was prepared by washing three times with PBS to remove residual compounds and ten volumes of ice cold 5% sulfosalicylic acid was added. Worms were manually homogenized on ice using VWR Pellet Mixer Adaptor. The worm suspension was centrifuged at 14000 × g, 4 °C for 10 min and the acid supernatants transferred. An equal volume of ice-cold neutralization buffer (500 mM HEPES, pH 8.0) was added to the acid supernatants.
GSH/GSSG assay was performed by diluting the acid supernatant (5-fold) with ice-cold dilution buffer (250 mM HEPES, pH 7.5). Using white opaque luminescence plate on ice, 25 µl of the diluted worm acid supernatant was added each well in triplicates. Total glutathione lysis reagent and GSSG lysis reagent, which contains alkylating agent N-ethylmaleimide (25 mM) were prepared following manufactures protocol and added to respective wells along with blank for background. Total glutathione lysis reagent or oxidized glutathione lysis reagent (25 µl) was added to respective wells containing worm acid supernatants and the plate was shaken for 5 min. Luciferin generation reagent (LGR) (50 µl) was added to all wells, briefly shaken and incubated at room temperature for 30 min. Luciferin detection reagent (LDR) (100 µl) was added to all wells, briefly shaken and incubated for 15 min at room temperature and the luminescence measured using microplate imager (BioTek Cytation3). GSH/GSSH ratio for DMSO control and compounds were calculated using (Net DMSO total glutathione RFU) – (Net DMSO GSSG RFU)/ (Net DMSO GSSG RFU)/2 and (Net inhibitor total glutathione RFU) – (Net inhibitor GSSG RFU)/ (Net inhibitor GSSG RFU)/2 respectively.

[2] = system: S. mansoni adult worms; experiment: Schistosomicidal activity ex vivo, adult worms (Cell Titer Glo), alone or with channel blockers; conditions: for LD50 ex vivo S. mansoni adult: 24 h exposure; for viability at 5 µM / viability at 15 µM / viability at 30 µM / viability at 50 µM / viability at 10 µM / viability at 25 µM / viability at 100 µM: Schistosoma mansoni
Experimental: Three-week old, female Swiss-Webster mice obtained from the Charles River were housed in the Comparative Research Center of Rush University Medical Center. Mice were infected by percutaneous tail exposure to about 200 S. mansoni or 50 S. japonicum cercaria for adult worms and about 1000 cercaria for juvenile S. mansoni worms through natural transdermal penetration of the cercariae for 1 h[81].
DMSO formulated compounds were diluted with phenol red free M199 medium or RPMI medium for NTS or juvenile and adult worms, respectively, at <1% DMSO final concentrations. NTS, juvenile and adult worms from overnight cultures were tested against compounds in triplicate. Controls were treated with DMSO alone or 5 µM AF as a positive control in appropriate medium. […] Schistosome viabilities in the presence of the compounds were assessed using this formula: % Viability = Averages of Test / Averages of DMSO Control x 100.

[3] = system: S. mansoni newly transformed schistosomula (NTS); experiment: Schistosomicidal activity ex vivo, NTS (Cell Titer Glo); conditions: for LD50 ex vivo S. mansoni NTS: 24 h exposure, Cell TiterGlo
Experimental: Oncomelania hupensis subsp. hupensis, Chinese strain, infected with S. japonicum, Chinese strain, and Biomphalaria glabrata, strain NMRI, infected with S. mansoni, strain NMRI, were provided by the NIAID Schistosomiasis Resource Center for distribution through BEI Resources, NIAID, NIH. After infections were patent, snails were exposed to bright light for 1 hr to obtain cercariae. Cercariae were mechanically transformed to schistosomula. Briefly, cercariae were placed on ice for 30 min and then centrifuged at 350 × g for 10 mins. The supernatant was decanted and 2 ml of serum-free M199 medium was added to cercarial pellets and vortexed for 1 min until cercarial tails were detached. NTS were purified by layering on 4 °C Percoll gradient suspension containing Eagle’s minimum essential medium, penicillin-streptomycin (10,000 U per ml penicillin/10,000 U per ml streptomycin), and 1 M HEPES in 0.85% NaCl with cercariae suspension and centrifuged at 500 × g for 15 min. Cercarial pellets were resuspended and washed thrice in serum-free M199 medium and collected at 100 × g for 5 min. NTS (240) were transferred to U-bottom 96 well assay plates containing 200 µl of M199 medium supplemented with 5.5 mM D-glucose, penicillin-streptomycin and 5% heat inactivated fetal bovine serum and incubated at 37 °C in a 5% CO2 incubator overnight.
DMSO formulated compounds were diluted with phenol red free M199 medium or RPMI medium for NTS or juvenile and adult worms, respectively, at <1% DMSO final concentrations. NTS, juvenile and adult worms from overnight cultures were tested against compounds in triplicate. Controls were treated with DMSO alone or 5 µM AF as a positive control in appropriate medium. Worm viability was assessed at 24 or 72 h by measuring ATP content of worms using Cell Titer Glo Assay (Promega) as described. Schistosome viabilities in the presence of the compounds were assessed using this formula: % Viability = Averages of Test / Averages of DMSO Control x 100.

[4] = 1 hr, third data set (r147-159), 0hr 72.45
[5] = 1 hr, third data set (r147-159), 0hr = 100
[6] = 1 hr, third data set, (values given as fraction)
[7] = 3 hr, third data set (r147-159), 0hr 72.45
[8] = 3 hr, third data set (r147-159), 0hr = 100
[9] = 3 hr, third data set, (values given as fraction)
[10] = S. mansoni adult worms, Conc. 5 µM, read-out: % viability
[11] = S. mansoni adult worms, Conc. 30 µM, read-out: % viability
[12] = S. mansoni adult worms, Conc. 50 µM, read-out: % viability
[13] = Schistosoma mansoni, 72 h, read-out: % viability, S. mansoni NTS
[14] = adult worms ex vivo, 1 hr, relative to 0hr
[15] = adult worms ex vivo, 1 hr, relative to 0hr, values given as fraction
[16] = adult worms ex vivo, 3 hr, relative to 0hr
[17] = adult worms ex vivo, 3 hr, relative to 0hr, values given as fraction
[18] = 10 µM, compound alone, read-out: % viability, adult worms
[19] = 30 µM, compound alone, read-out: % viability, adult worms
[20] = S. mansoni adult worms, Conc. 10 µM, read-out: % viability
[21] = S. mansoni adult worms, 5 µM, relative to Worm + RPMI control, read-out: % viability
[22] = S. mansoni adult worms, 15 µM, relative to Worm + RPMI control, read-out: % viability
[23] = S. mansoni adult worms, 30 µM, relative to Worm + RPMI control, read-out: % viability
[24] = S. mansoni adult worms, 50 µM, relative to Worm + RPMI control, read-out: % viability

| SMILES | Reduction (%) in GSH/GSSG ratio ([1]; 1 hr, third data set) | Ratio GSH/GSSG [1, 4] | % Ratio GSH/GSSG [1, 5] | Reduction (%) in GSH/GSSG ratio [1, 6] | Reduction (%) in GSH/GSSG ratio ([1]; 3 hr, third data set) | Ratio GSH/GSSG [1, 7] | % Ratio GSH/GSSG [1, 8] | Reduction (%) in GSH/GSSG ratio [1, 9] | Decrease (%) in GSH/GSSG ratio [1] | LD50 ex vivo S. mansoni adult ([2]; compound alone) | viability at 5 µM [2, 10] | viability at 30 µM [2, 11] | viability at 50 µM [2, 12] | LD50 ex vivo S. mansoni NTS [3] | viability at 5 µM ([3]; Schistosoma mansoni) | % Ratio GSH/GSSG ([1]; adult worms ex vivo, 1 hr) | Reduction (%) in GSH/GSSG ratio [1, 14] | Reduction (%) in GSH/GSSG ratio [1, 15] | % Ratio GSH/GSSG ([1]; adult worms ex vivo, 3 hr) | Reduction (%) in GSH/GSSG ratio [1, 17] | other results |
| --- | --- | --- | --- | --- | --- | --- | --- | --- | --- | --- | --- | --- | --- | --- | --- | --- | --- | --- | --- | --- | --- |
| C#CCN(Cc1nc(-c2ccccc2)oc1C)[C@@H]1C[C@@H]2C[C@H]([C@H]1C)C2(C)C [Compound 6] | 3.259% | 70.09 | 96.7414% | 0.0326% | 8.6517% | 66.18 | 91.3483% | 0.09% | 32% | 15.7 ± 0.64 µM | 88.5% | 42% | 23.3% | 17.5 ± 3.7 µM | 81.1% |  |  |  |  |  | viability at 15 µM ([2]; S. mansoni adult worms, Conc. 15 µM, read-out: % viability): 50.6%; LD50 NTS after 72 h exposure ([3]; 72 h exposure): 7.8 ± 2.36 µM; viability at 15 µM ([3]; Schistosoma mansoni): 57%; viability at 30 µM ([3]; Schistosoma mansoni): 30.8%; viability at 50 µM ([3]; Schistosoma mansoni): 26.4%; viability at 1.25 µM [3, 13]: 86%; viability at 2.5 µM [3, 13]: 73.8%; viability at 5 µM [3, 13]: 55.5%; viability at 10 µM [3, 13]: 45.1% |
| Cc1oc(C2CCCCC2)nc1C(=O)N[C@@H]1C[C@@H]2C[C@H]([C@H]1C)C2(C)C [Compound 7] |  |  |  |  |  |  |  |  | 38% and 36.9% | 32.6 ± 0.26 µM | 99.8% | 59% |  | 4.7 ± 0.31 µM | 40.2% | 52.5902% | 13.6142% | 0.1361% | 37.7921% | 0.3792% | Reduction (%) in GSH/GSSG ratio [1, 16]: 37.9219%; viability at 5 µM ([2]; 5 µM, compound alone, read-out: % viability, adult worms): 99.8%; viability at 10 µM [2, 18]: 72.9%; viability at 25 µM ([2]; 25 µM, compound alone, read-out: % viability, adult worms): 63%; viability at 30 µM [2, 19]: 59%; viability at 10 µM [2, 20]: 72.9%; viability at 25 µM ([2]; S. mansoni adult worms, Conc. 25 µM, read-out: % viability): 63%; viability at 1 µM ([3]; Schistosoma mansoni): 85.7%; viability at 1.5 µM ([3]; Schistosoma mansoni): 72.1%; viability at 2.5 µM ([3]; Schistosoma mansoni): 47.6% |
| C[C@@H]1[C@H]2C[C@@H](C[C@H]1NCc1nc3ccccc3n1C1CCCCCC1)C2(C)C [Compound 8] | 13.1896% | 62.89 | 86.8104% | 0.13% | 20.8885% | 57.32 | 79.1115% | 0.21% | 20% | 22.3 ± 0.2 µM and 22.3 ± 0.20 µM |  | 30.6% | 14% | 9.4 ± 0.74 µM | 84.8% | 52.2584% | 14.1592% | 0.1416% | 52.8952% | 0.2338% | viability at 10 µM [2, 18]: 85.4%; viability at 30 µM [2, 19]: 30.6%; viability at 50 µM ([2]; 50 µM, compound alone, read-out: % viability, adult worms): 14%; viability at 100 µM ([2]; 100 µM, compound alone, read-out: % viability, adult worms): 6.59%; viability at 10 µM [2, 20]: 85.4%; viability at 100 µM ([2]; S. mansoni adult worms, Conc. 100 µM, read-out: % viability): 6.59%; viability at 0.1 µM ([3]; Schistosoma mansoni): 99.8%; viability at 1 µM ([3]; Schistosoma mansoni): 91.9%; viability at 10 µM ([3]; Schistosoma mansoni): 33.1%; viability at 15 µM ([3]; Schistosoma mansoni): 28.2%; viability at 30 µM ([3]; Schistosoma mansoni): 11.9%; viability at 50 µM ([3]; Schistosoma mansoni): 1.87%; viability at 100 µM ([3]; Schistosoma mansoni): 0.303% |
| CC1C(NCc2cn(C3OCC(O)C(O)C3O)c3ccccc23)CC2CC1C2(C)C (stereo not drawn) [Compound 9] | 1.8641% | 71.10 | 98.1359% | 0.0186% | 10.4658% | 64.87 | 89.5342% | 0.10% | 9% | >100^a µM and >100 µM |  |  |  | 11.14 ± 1.04 µM |  |  |  |  |  |  | Ratio GSH/GSSG ([1]; 1 hr, second data set (r136-144), baseline 63.5617, DMSO 63.4928): 62.1962; Ratio GSH/GSSG ([1]; 3 hr, second data set (r136-144), baseline 63.5617, DMSO 203.124): 55.0997; viability at 5 µM [2, 21]: 99.2%; viability at 15 µM [2, 22]: 91.1%; viability at 30 µM [2, 23]: 88.8%; viability at 50 µM [2, 24]: 83.3%; viability at 100 µM ([2]; S. mansoni adult worms, 100 µM, relative to Worm + RPMI control, read-out: % viability): 78.4% |
| C[C@@H]1[C@H]2C[C@@H](C[C@H]1NCc1cc(-c3ccccc3)[nH]n1)C2(C)C [Compound 11] |  |  |  |  |  |  |  |  |  |  |  |  |  | >50^a µM |  | 59.9789% | 1.477% | 0.01477% | 59.8685% | 0.01659% | Reduction (%) in GSH/GSSG ratio [1, 16]: 1.659%; viability at 5 µM [2, 21]: 97.5%; viability at 15 µM [2, 22]: 93.7%; viability at 30 µM [2, 23]: 89.4%; viability at 50 µM [2, 24]: 88.5% |
| C[C@@H]1[C@H]2C[C@@H](C[C@H]1NCc1nc3ccccc3n1C)C2(C)C [Compound 12] |  |  |  |  |  |  |  |  |  | >50^a µM |  |  |  | >50^a µM |  | 59.2209% | 1.36% |  | 58.1972% |  |  |
